Assay results taken from patent publication US20040132740A1, “Novel antibiotics” (priority 2001, published 2004).
Where a name gives a salt, the structure may show the parent alone.

Columns and labels:
[1] = tested on: gram-positive and gram-negative organisms; test: Antibacterial effect compared with ciprofloxacin hydrochloride under the same experimental conditions; type: cell-based, E. coli and St. aureus; details: hydrochloride salt
Description: (§1) An aqueous solution of the salts of the compounds reported in this invention namely compound (A) and compound (B) were tested in vitro against E. coli and St. aureus according to an established clinical procedure (Mackie and McCartney: Practical Medical Microbiology, Churchill livingstone, 1996, 14th edition, p159-163).

bacteria = test: Further incubation of the positive samples for up to 16 hours (bacterial re-growth); type: cell-based
Description: (§2) The experimental work was carried out according to an established clinical procedure […] (Mackie and McCartney, ibid).

E. coli = test: Minimum inhibitory concentration in vitro against E. coli; type: cell-based; details: Escherichia coli, aqueous solution of hydrochloride salts
Description: as §1

Staphylococcus aureus = test: MIC / effective maintenance dose to control bacterial re-growth, clinically isolated Staphylococcus aureus; type: cell-based; details: clinically isolated microorganism, read-out: effective maintenance dose necessary to control bacterial re-growth (MIC), Staphylococcus aureus
Description: (§3) The minimum inhibitory concentration (MIC) of compound (A) and ciprofloxacin were also studied using clinically isolated microorganism staphylococcus aureus and pseudomotias aeruginose.
as §2

Pseudomones aeruginose = test: MIC / effective maintenance dose to control bacterial re-growth, clinically isolated Pseudomones aeruginose; type: cell-based; details: clinically isolated microorganism
Description: as §3, §2

St. aureus = test: Minimum inhibitory concentration in vitro against St. aureus; type: cell-based; details: Staphylococcus aureus, aqueous solution of hydrochloride salts
Description: as §1

LD50 on mice = details: mouse, in vivo

Compound	melting point [°C]	antibacterial effect towards gram-positive and gram-negative organisms [1]	sensitivity and effectiveness as antibacterial agent (bacteria; compared with ciprofloxacin hydrochloride)	bacterial growth after further incubation of the positive samples (bacteria; incubation up to 16 hours, dose of 0.0 μg/ml printed for compound (A))	MIC (E. coli) [µg/mL]	MIC (Staphylococcus aureus) [µg/mL]	effective maintenance dose necessary to control bacterial re-growth (MIC), Pseudomones aeruginose (Pseudomones aeruginose) [µg/mL]	MIC (St. aureus) [µg/mL]	LD50 (LD50 on mice) [mg/kg]
CN1CCN(c2cc3c(cc2F)c(=O)ccn3C2CC2)CC1 (as salt: hydrochloride) [Compound (B), 1-cyclopropyl-6-fluoro-1,4-dihydro-4-oxo-7-(1-(4-methyl)piperazinyl)-quinoline]	238 to 240								
O=c1ccn(C2CC2)c2cc(N3CCNCC3)c(F)cc12 [Compound (A) HCl salt, 1-cyclopropyl-6-fluoro-1,4-dihydro-4-oxo-7(1-piperazinyl)-quinoline]		better antibacterial effect	more sensitive and effective	very slow bacterial growth	0.01	0.06	0.05	0.08	28
CN1CCN(c2cc3c(cc2F)c(=O)ccn3C2CC2)CC1 [Compound (B), 1-cyclopropyl-6-fluoro-1,4-dihydro-4-oxo-7-(1-(4-methyl)piperazinyl)-quinoline]		better antibacterial effect							
